Consider 2 compounds from US8637252B2, “Methods and compositions for determining altered susceptibility of HIV-1 to anti-HIV drugs” (Monogram Biosciences, Inc., priority 2011, dated 2014).

What all share (format): cell-based
For assay [1], the system named is HIV-1 NL4-3 and IIIB site-directed integrase mutants. Kind of assay: phenotypic INSTI susceptibility test, site-directed integrase mutants in NL4-3 or IIIB background (RHIN segment assay). The method, then:
To assess the effects of mutations at positions 97 and 156 of integrase, two site-directed mutants (T97A and K156N) were constructed in two different wild-type (NL4-3 and IIIB) genetic backgrounds. The INSTI susceptibility phenotypes of these mutants to diketo acid 1, diketo acid 2, and L-870,810 were then determined using the RHIN segment assay according to Example 2.
In particular, site-directed mutants were constructed in an NL4-3 or IIIB background comprising either T97A or K156N. The FC in susceptibility to diketo acid 1, diketo acid 2, and L-870,810 for each mutant is shown as FIG. 18.
Next, a series of site-directed mutants were constructed to assess the effects of combinations of T97A and K156N with previously recognized INSTI resistance mutations. In particular, mutants comprising T97A, K156N, and the combination of T97A and K156N were made in combination with three constellations of previously recognized INSI mutations (V721, F121Y, and T125K; N155S; and T66I and M1541). Each of these combinations was made in a IIIB background. The effects of these combinations on diketo acid 1, diketo acid 2, and L-870,810 susceptibility were tested with the RHIN segment assay according to the method described in Example 2.

For assay [2], the system named is HIV-1 (patient-derived RHIN segment). As to the kind of experiment: phenotypic drug resistance test, resistance test vectors with patient-derived RHIN segment, luciferase, 293 cells. An excerpt: Patient-derived segment(s) corresponding to the entire pol gene, encoding HIV protease, reverse transcriptase (including RNAse H), and integrase (hereinafter “POL”), the portion of pol encoding amino acids 1-305 of reverse transcriptase (hereinafter “PR-RT”), the portion of pol encoding amino acids 319-440 of reverse transcriptase (including RNAse H), and integrase (hereinafter “RHIN”), were amplified by the reverse transcription-polymerase chain reaction method (RT-PCR) using viral RNA isolated from viral particles present in the plasma or serum of HIV-infected individuals as described below. The portion of pol encoding protease, amino acids 1-531 of reverse transcriptase (including RNase H) (hereinafter “PRRT-RH”), or the portion of pol encoding protease, reverse transcriptase (including RNAse H) and integrase (hereinafter “PRRT-RHIN”), were assembled from amplicons described above by standard recombinant DNA techniques involving a KpnI restriction site at amino acid 400 or a Pin A1 site at amino acid 315.
Virus was pelleted by centrifugation at 20,400×g for 60 min from plasma (typically, 1 ml) prepared from blood samples collected in evacuated tubes containing either EDTA, acid-citrate dextrose, or heparin as an anticoagulant. Virus particles were disrupted by resuspending the pellets in 200 [1.1 of lysis buffer (4 M guanidine thiocyanate, 0.1 M Tris HCl (pH 8.0), 0.5% sodium lauryl sarcosine, 1% dithiothreitol). RNA was extracted from viral lysates by using oligo(dT) linked to magnetic beads (Dynal, Oslo, Norway). Reverse transcription was performed with Superscript III (Invitrogen) at 50 degrees for 1 hour using primer 1.
From the resultant cDNA either POL or RHIN sequences were amplified using the Advantage High Fidelity PCR kit (BD Biosciences; Clontech). POL amplification products are made using forward Primer 3 containing an Apal site and reverse Primer 4 containing a Xho 1 site. RHIN amplification products are made using forward Primer 2 containing a P1NA1 site and reverse Primer 4 containing a Xho 1 site.
A retroviral vector designed to measure antiretroviral drug susceptibility was constructed by using an infectious molecular clone of HIV-1. The vector, referred to herein as an indicator gene viral vector (IGVV), is replication defective and contains a luciferase expression cassette inserted within a deleted region of the envelope (env) gene. The IGVV is described in U.S. Pat. No. 5,837,464 (International Publication Number WO 97/27319) which is hereby incorporated by reference in its entirety. This retroviral vector was further modified to allow insertion of either the entire pol gene (POL) or the portion of poi encoding amino acids 319-440 of reverse transcriptase, the RNase H portion of reverse transcriptase, and integrase (REIN) by engineering an Xho l restriction enzyme recognition site into vif. Prior to doing this, an Xho 1 site in nef was deleted. Resistance Test vectors (RTVs) were constructed by incorporating amplified POL or RHIN into the IGVV by using Apal and Xhol or PinAI and Xho 1 restriction sites respectively. RTVs were prepared as libraries (pools) in order to capture and preserve the pol or RHIN sequence heterogeneity of the virus in the patient. POL amplification products were digested with Apal and Xhol, purified by agarose gel electrophoresis, and ligated to ApaI- and Xhol-digested IGVV DNA. RHIN amplification products were digested with PinAI and Xho/, purified by agarose gel electrophoresis, and ligated to PinAI and Xhol-digested IGVV DNA. Ligation reactions were used to transform competent Escherichia coli (Invitrogen, Carlsbad, Calif.). An aliquot of each transformation was plated onto agar, and colony counts were used to estimate the number of patient-derived segments represented in each RTV library. RTV libraries that comprised less than 50 members are not considered representative of the patient virus. […]

Assay [3] relates to HIV-1 patient-derived test vectors with site-directed reverse transcriptase mutations. As to the kind of experiment: phenotypic drug resistance test, site-directed reverse transcriptase mutants in patient backgrounds. The method, then: In addition, using conventional technique, the T369I mutation was introduced into a resistance test vector comprising PR-RT segment derived from patient sample 62, which comprises mutations A62V, Q102K, K103N, K122E, D123N, C162S, D177E, 1178L, M184V, T200A, Q207E, T215Y, P243S, V245Q, A272P and R277K in reverse transcriptase. Among these mutations, K103N correlates with resistance to a number of NNRTIs, including NVP. This patient sample was tested for resistance to an NNRTI using the methods described above.
To further analyze the effects of N348I, T369I, and E399D on NNRTI resistance, an additional series of site directed mutants was constructed in non-wild-type backgrounds. In particular, site-directed mutants comprising the N348I, T369I, or E399D mutation were constructed in POL-containing test vectors obtained from three different patient samples. Results from these experiments are presented as FIG. 11.
To further analyze the effects of N348I, T369I, and E399D on AZT resistance, an additional series of site directed mutants was constructed in non-wild-type backgrounds. In particular, site-directed mutants comprising the N3481, T369I, or E399D mutation were constructed in POL-containing test vectors obtained from two different patient samples.

Assay [4] deals with HIV-1 NL4-3 site-directed reverse transcriptase mutants. Kind of assay: phenotypic drug resistance test, site-directed reverse transcriptase mutants in NL4-3 background (POL segment assay). How it is done:
Further, a site directed double mutant T3691/K103N was generated using conventional techniques and tested for resistance to an NNRTI using the methods described above.
To assess the effects of mutations at positions 348, 369, and 399, a series of site-directed mutants were constructed in an wild-type (NL4-3) background. The NNRTI susceptibility phenotypes of these mutants were then determined using the POL segment assay according to Example 2.
In particular, site-directed mutants were constructed in an NL4-3 background comprising N348I, T369I, E399D, or the combination of N3481 and T369I.
Next, a series of site-directed mutants were constructed to assess the effects of combinations of N3481, T369I, and E399D with previously recognized NNRTI resistance mutations. In particular, mutants comprising N348I, T369I, and E399D were made in combination with G190S, with K103N, and with the combination of K103R and V179D. The effects of these combinations on DLV, EFV, and NVP susceptibility were tested using the POL segment assay according to the method describe in Example 2. The results from these experiments are presented as FIG. 10.
To assess the specific effects of mutations at positions 348, 369, and 399, a series of site-directed mutants were constructed in an wild-type (NL4-3) background. The AZT susceptibility phenotype of these mutants were then determined with a POL segment assay according to Example 2.
In particular, site-directed mutants were constructed in an NL4-3 background comprising N348I, T3691, E399D, or the combination of N348I and T3691. The FC in AZT susceptibility for each mutant is shown as FIG. 13.

For `O=C(NCc1ccc(F)cc1)c1nc(N2CCCCS2(=O)=O)c2cccnc2c1O` [L-870,810], the “effect of mutation on resistance” value in assay [1] (T97A alone or with V72I/F121Y/T125K, N155S, or T66I/M154I, IIIB background) is on record as “increased resistance”. Also, the “effect of mutation on susceptibility” value is listed as “increased susceptibility” in assay [1] (integrase K156N in NL4-3 and IIIB backgrounds); “reduced susceptibility” in assay [1] (integrase T97A in NL4-3 and IIIB backgrounds). Further, the “FC in susceptibility relative to wild-type (NL4-3)” value in assay [2] (nine of 128 patient samples, containing integrase K156N) is < 0.5; in assay [2] (three of 128 patient samples, containing integrase T97A), “increased FC”.

For `Cc1cn([C@H]2C[C@H](N=[N+]=[N-])[C@@H](CO)O2)c(=O)[nH]c1=O` [AZT], the “change in resistance on addition of mutation” value is “did not significantly increase” in assay [3] (E399D mutation, patient 45 or patient 50 background); “increased resistance” in assay [3] (N348I and T369I mutations, all tested patient backgrounds (patients 45, 50)). For the same compound, the FC in susceptibility in assay [4] (site-directed mutant E399D in NL4-3 background) is listed as < 2; in assay [4] (site-directed mutant N348I and T369I combination in NL4-3 background), > 2; in assay [4] (site-directed mutant N348I in NL4-3 background), > 2. Moreover, in assay [4] (site-directed mutant T369I in NL4-3 background), the “fold change for IC50” value is on record as > 2 fold.
